Experimental data taken from patent US9029370B2, “Substituted benzamide derivatives” (Hoffmann-La Roche Inc., priority 2011, dated 2015).
Structures can show the parent of a compound that is named as a salt.

Legend:
mouse TAAR1 = mouse TAAR1 (Mus musculus (Mouse), UniProt Q923Y8); assay: Radioligand binding assay on mouse TAAR1; details: for Ki: mouse TAAR1, HEK-293 membranes, first value of the pair (before the slash), read-out: Ki (μM) mouse/rat
Summary of the method: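 Membranes from HEK293 cells stably expressing mouse TAAR1, in HEPES-NaOH pH 7.4 with 0.1 mM EDTA, were incubated 1 h at 4°C with tritiated (S)-4-[(ethyl-phenyl-amino)-methyl]-4,5-dihydro-oxazol-2-ylamine and compound (10 pM–10 μM, duplicates). Nonspecific binding defined with 10 μM unlabeled ligand; bound radioactivity by filtration and scintillation counting.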

rat TAAR1 = rat TAAR1 (Rattus norvegicus (Rat), UniProt Q923Y9); assay: Radioligand binding assay on rat TAAR1; details: for Ki: rat TAAR1, HEK-293 membranes, second value of the pair (line below), read-out: Ki (μM) mouse/rat
Summary of the method: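 Membranes from HEK293 cells stably expressing rat TAAR1 were incubated 1 hr at 4 °C with ^3[H]-(S)-4-[(ethyl-phenyl-amino)-methyl]-4,5-dihydro-oxazol-2-ylamine; nonspecific binding was defined with 10 μM unlabeled ligand. Compounds were tested at 10 pM to 10 μM in duplicate. Bound radioactivity was read by filtration and scintillation counting.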

rat TAAR1, sequence (Q923Y9 whole entry): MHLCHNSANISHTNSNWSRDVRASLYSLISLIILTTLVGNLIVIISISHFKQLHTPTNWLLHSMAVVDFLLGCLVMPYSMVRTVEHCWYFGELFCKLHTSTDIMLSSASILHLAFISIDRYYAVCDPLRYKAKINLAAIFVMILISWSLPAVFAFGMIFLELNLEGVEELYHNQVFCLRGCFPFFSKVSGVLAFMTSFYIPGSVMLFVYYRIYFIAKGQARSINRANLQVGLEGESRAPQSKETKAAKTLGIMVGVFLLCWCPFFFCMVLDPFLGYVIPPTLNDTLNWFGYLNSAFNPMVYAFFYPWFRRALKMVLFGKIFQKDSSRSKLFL
mouse TAAR1, sequence (Q923Y8 whole entry): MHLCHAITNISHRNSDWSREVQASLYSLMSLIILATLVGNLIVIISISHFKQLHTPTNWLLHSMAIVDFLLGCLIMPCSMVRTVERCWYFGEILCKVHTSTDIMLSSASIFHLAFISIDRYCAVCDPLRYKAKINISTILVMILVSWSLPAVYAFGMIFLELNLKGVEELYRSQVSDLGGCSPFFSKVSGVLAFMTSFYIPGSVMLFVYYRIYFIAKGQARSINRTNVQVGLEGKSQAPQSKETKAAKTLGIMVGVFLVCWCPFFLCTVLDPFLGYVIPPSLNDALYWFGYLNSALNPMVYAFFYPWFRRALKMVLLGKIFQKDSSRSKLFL

SMILES	Ki (mouse TAAR1)	Ki (rat TAAR1)	Kd (mouse TAAR1; mouse TAAR1 membranes, saturation curve, usual value, read-out: dissociation constant (Kd) of the radioligand)	Kd (rat TAAR1; rat TAAR1 membranes, saturation curve, usual value, read-out: dissociation constant (Kd) of the radioligand)
Cc1nc(C(=O)Nc2ccc([C@H]3CNCCO3)cc2F)ccc1C#N [Example 135, (S)-5-Cyano-N-(2-fluoro-4-(morpholin-2-yl)phenyl)-6-methylpicolinamide hydrochloride]	0.0105 µM	0.578 µM	–	–
Cc1nc(C(=O)Nc2ccc([C@H]3CNCCO3)c(F)c2)ccc1C#N [Example 136, (S)-5-Cyano-N-(3-fluoro-4-(morpholin-2-yl)phenyl)-6-methylpicolinamide hydrochloride]	0.0075 µM	0.0585 µM	–	–
O=C(Nc1ccc([C@H]2CNCCO2)c(F)c1)c1cnc(C(F)(F)F)cn1 [Example 137, (S)—N-(3-Fluoro-4-(morpholin-2-yl)phenyl)-5-(trifluoromethyl)pyrazine-2-carboxamide hydrochloride]	0.0067 µM	0.0301 µM	–	–
CCOc1ccc(C(=O)Nc2ccc([C@H]3CNCCO3)cc2F)cn1 [Example 138, (S)-6-Ethoxy-N-(2-fluoro-4-(morpholin-2-yl)phenyl)nicotinamide]	0.0042 µM	0.308 µM	–	–
CCN(C[C@H]1COC(N)=N1)c1ccccc1 [^3[H]-(S)-4-[(ethyl-phenyl-amino)-methyl]-4,5-dihydro-oxazol-2-ylamine, reference compound]	–	–	~0.7 nM	~2.3 nM
